Assay results from ChEMBL document CHEMBL1201862, “PubChem BioAssay data set” (2004).
Calls of active or inactive are those of the source.

What was measured:
[1] = target: Latent membrane protein 1 (Human herpesvirus 4 (strain B95-8), UniProt P03230); experiment: LMP1 TES1 pathway selectivity over dsRED control – imaging, HEK293T, dual-color eGFP/dsRED, cherry-picks, selectivity assay for LMP1 NF-kB inhibitor project, dose response (AID 588398); assay type: functional, cell-based
HEK293 [2] = experiment: EBV LMP1 TES2 canonical NF-kB signalling blockers – cell-based, HEK293, luciferase, cherry-pick, dose response (AID 588343); assay type: functional; details: Homo sapiens
[3] = reduction of Shn3 3'UTR-driven luciferase in osteoblasts – cell-based, Clone20 osteoblasts, firefly luciferase, cherry-picked, dose response (AID 624132); assay type: functional;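 note: firefly luciferase luminescence from reporter carrying the Shn3 3'UTR in osteoblasts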
[4] = loss of viability in HepG2 cells – cell-based, CellTiter-Glo, cherry-picked, cytotoxicity control for Shn3 inhibitor project, dose response (AID 624134); assay type: functional
[5] = target: T1, Apoptotic protease-activating factor 1 (Homo sapiens, UniProt O14727); assay type: functional
T1 sequence (O14727 whole entry): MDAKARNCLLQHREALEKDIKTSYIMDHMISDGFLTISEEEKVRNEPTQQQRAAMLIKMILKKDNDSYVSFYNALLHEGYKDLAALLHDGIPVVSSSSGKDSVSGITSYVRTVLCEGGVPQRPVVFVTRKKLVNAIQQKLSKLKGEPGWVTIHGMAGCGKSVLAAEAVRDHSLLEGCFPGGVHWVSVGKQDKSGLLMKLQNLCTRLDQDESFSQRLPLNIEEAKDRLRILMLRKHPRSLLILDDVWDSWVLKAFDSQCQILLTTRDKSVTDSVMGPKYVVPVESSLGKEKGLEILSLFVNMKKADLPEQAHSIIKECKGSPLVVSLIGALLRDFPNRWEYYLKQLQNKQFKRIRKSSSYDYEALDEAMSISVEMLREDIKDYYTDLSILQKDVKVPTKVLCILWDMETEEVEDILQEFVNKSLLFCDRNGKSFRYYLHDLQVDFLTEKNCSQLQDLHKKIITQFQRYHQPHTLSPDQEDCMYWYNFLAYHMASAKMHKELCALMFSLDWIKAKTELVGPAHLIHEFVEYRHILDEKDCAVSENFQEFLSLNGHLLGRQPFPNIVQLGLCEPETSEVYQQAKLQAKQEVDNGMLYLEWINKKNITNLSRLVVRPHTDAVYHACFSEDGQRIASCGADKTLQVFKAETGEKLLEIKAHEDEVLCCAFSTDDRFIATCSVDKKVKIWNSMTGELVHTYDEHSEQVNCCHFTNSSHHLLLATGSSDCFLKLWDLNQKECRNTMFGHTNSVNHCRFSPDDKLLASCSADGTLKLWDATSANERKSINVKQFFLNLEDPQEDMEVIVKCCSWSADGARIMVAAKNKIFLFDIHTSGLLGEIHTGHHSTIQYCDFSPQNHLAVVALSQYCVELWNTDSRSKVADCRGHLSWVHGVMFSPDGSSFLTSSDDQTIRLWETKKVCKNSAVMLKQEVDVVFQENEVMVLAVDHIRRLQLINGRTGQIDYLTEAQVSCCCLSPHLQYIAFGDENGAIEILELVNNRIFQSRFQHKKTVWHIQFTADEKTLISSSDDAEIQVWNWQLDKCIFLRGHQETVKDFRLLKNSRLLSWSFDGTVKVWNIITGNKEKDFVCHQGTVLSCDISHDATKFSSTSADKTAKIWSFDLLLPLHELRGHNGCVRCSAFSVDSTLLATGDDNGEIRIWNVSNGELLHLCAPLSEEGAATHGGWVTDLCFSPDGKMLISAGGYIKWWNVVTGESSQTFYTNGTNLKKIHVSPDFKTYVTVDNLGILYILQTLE

CAAX prenyl protease 1 = CAAX prenyl protease 1 (Saccharomyces cerevisiae S288c, UniProt P47154); experiment: yeast CAAX protease Ste24 inhibition – biochemical, S. cerevisiae, plate reader, cherry-pick, dose response (AID 488815)
Chain of CAAX prenyl protease 1 (P47154 whole entry): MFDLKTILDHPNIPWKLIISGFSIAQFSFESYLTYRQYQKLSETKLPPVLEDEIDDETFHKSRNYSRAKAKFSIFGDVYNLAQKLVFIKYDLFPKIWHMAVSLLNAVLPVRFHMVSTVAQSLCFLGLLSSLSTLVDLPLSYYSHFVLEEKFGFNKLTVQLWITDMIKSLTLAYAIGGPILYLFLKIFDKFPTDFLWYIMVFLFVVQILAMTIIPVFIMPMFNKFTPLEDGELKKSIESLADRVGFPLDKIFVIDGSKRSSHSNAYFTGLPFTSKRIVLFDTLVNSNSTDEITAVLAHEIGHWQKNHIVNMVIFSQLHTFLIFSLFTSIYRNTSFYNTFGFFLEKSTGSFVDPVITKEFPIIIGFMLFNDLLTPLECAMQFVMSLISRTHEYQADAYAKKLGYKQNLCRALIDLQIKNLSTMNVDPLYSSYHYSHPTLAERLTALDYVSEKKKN

[6] = target: Dual specificity tyrosine-phosphorylation-regulated kinase 1A (Rattus norvegicus, UniProt Q63470); assay type: biochemical, Homo sapiens
[7] = target: T2, Nuclear receptor subfamily 0 group B member 1 (Homo sapiens, UniProt P51843); experiment: Luminescence-based cell-based high throughput dose response assay for inhibitors of the orphan nuclear receptor subfamily 0, group B, member 1 (DAX1; NR0B1). [Related pubchem assays (depositor defined):AID504766, AID504790]; assay type: functional
T2 sequence (P51843 whole entry): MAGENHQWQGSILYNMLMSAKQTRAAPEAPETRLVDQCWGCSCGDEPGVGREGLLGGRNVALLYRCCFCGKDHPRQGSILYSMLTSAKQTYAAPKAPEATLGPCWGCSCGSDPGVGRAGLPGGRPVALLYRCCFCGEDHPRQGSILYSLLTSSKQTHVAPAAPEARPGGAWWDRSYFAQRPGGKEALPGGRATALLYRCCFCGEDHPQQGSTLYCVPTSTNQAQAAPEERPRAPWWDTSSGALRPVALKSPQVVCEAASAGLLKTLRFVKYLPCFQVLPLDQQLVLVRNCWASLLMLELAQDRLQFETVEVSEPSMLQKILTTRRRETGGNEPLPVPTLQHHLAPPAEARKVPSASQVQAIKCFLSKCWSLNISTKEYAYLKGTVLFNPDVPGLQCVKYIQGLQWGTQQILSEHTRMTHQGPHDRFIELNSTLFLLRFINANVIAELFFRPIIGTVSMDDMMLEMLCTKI

HEK293 [8] = experiment: cells; assay type: functional, cell-based; details: Homo sapiens

Chain of Latent membrane protein 1 (P03230 whole entry): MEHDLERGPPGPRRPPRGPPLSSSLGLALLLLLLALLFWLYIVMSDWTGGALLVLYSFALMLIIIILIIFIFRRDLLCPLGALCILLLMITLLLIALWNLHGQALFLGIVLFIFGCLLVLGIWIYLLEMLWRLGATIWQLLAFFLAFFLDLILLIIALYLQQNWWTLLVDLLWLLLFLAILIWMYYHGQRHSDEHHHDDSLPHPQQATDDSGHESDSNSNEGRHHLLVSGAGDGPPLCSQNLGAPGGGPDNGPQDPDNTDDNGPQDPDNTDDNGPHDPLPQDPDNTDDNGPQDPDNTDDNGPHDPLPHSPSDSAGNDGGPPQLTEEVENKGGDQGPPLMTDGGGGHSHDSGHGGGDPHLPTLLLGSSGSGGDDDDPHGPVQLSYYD

CN1OC[C@@H]2CN[C@H](c3ccc(-c4cc5ccccc5o4)cc3)C[C@@H]21
AC50 [1]: 51.1 µM (active)
AC50 (HEK293 [2]): 0.0503 µM (active)
AC50 [3]: < 0.26 µM (active)
AC50 [4]: > 70 µM (inactive)

CCC(CN(C)C)Oc1cc(NCc2ccccc2)c2ncn(C(C)C)c2c1 (centres undefined)
IC50 [5]: 7.98 µM (active)

COc1ccc2c3c([nH]c2c1)C(C)=NCC3 [HARMALINE]
AC50 (CAAX prenyl protease 1): 2.77 µM (active)
AC50 [6]: 1.24 µM (active)

CCc1ccc(S(=O)(=O)Nc2c(C)nc3ncnn3c2O)cc1
IC50 [7]: > 67.5 µM (inactive)
IC50 (HEK293 [8]): > 67.5 µM (inactive)
